Data from PubChem BioAssay (NCI).
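Dose response: 5 concentrations. Exposure: 48 h. Format: 96-well plates. Endpoint: linear interpolation; highest concentration if not reached. The concentration for 50% growth inhibition is given as GI50. TGI denotes the concentration required for complete inhibition of growth.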

Experiments:
Assay in all cases: NCI tumour cell line growth inhibition, 48 h
[1] = system: DU-145 prostate
[2] = system: TK-10 renal
[3] = system: MDA-MB-231 breast
[4] = system: MDA-MB-435
[5] = system: BT-549 breast
[6] = system: T-47D breast
[7] = system: HOP-18 NSCLC
[8] = system: P388/ADR leukemia
[9] = system: SN12K1 renal
[10] = system: DLD-1 colon
[11] = system: XF 498 CNS
[12] = system: LXFL 529 NSCLC
[13] = system: MDA-N
[14] = system: 786-0 renal

CCCC(C)c1ccc(OCCCCCCN2CCNCC2)cc1 (stereo not drawn)
GI50 [1]: 2.25 µM | TGI [1]: 5.43 µM | GI50 [2]: 1.8 µM | TGI [2]: 3.47 µM | GI50 [3]: 1.75 µM | TGI [3]: 3.58 µM | GI50 [4]: 1.7 µM | TGI [4]: 3.22 µM | GI50 [5]: 3.08 µM | TGI [5]: 12.4 µM | GI50 [6]: 1.71 µM | TGI [6]: 3.72 µM

O=C1C=C(C2OC(CO)C(O)C2O)C(=O)N1 (stereo not drawn)
TGI [7]: > 100 µM | TGI [8]: 68.5 µM | TGI [9]: > 100 µM | TGI [10]: > 100 µM

CN(C)CCNC(=O)c1cccc2c(=O)c3ccccc3oc12
TGI [11]: > 93.9 µM | TGI [7]: > 100 µM | TGI [8]: 73.2 µM | TGI [9]: 47.5 µM | TGI [10]: > 100 µM

O=C(c1ccccc1)c1ccc2n[se]nc2c1
TGI [2]: > 100 µM | TGI [12]: > 100 µM | TGI [10]: > 100 µM

CC(=O)C(C(c1ccccc1)N1CCOCC1)N1CCOCC1 (stereo not drawn)
TGI [13]: > 100 µM | TGI [1]: > 100 µM | TGI [2]: 53.7 µM | TGI [3]: > 100 µM | TGI [4]: > 100 µM | TGI [5]: > 100 µM | TGI [6]: > 100 µM | TGI [14]: > 100 µM

CCOP(=Nc1ccc(N(C)C)cc1)(OCC)OCC
TGI [13]: > 100 µM | TGI [1]: > 100 µM | TGI [2]: > 100 µM | TGI [3]: > 100 µM | TGI [4]: > 100 µM | TGI [5]: > 100 µM

CC1=C2C(O)C(C(C)C(=O)N(C)C)CCC2(C)C=CC1=O (stereo not drawn)
TGI [11]: > 100 µM | TGI [7]: > 100 µM | TGI [8]: > 100 µM | TGI [9]: > 100 µM | TGI [10]: > 100 µM

Cc1ccc(S(=O)(=O)Nc2cccc3c(=O)[nH]cnc23)cc1
TGI [2]: > 100 µM | TGI [11]: > 100 µM | TGI [7]: > 100 µM | TGI [12]: > 100 µM | TGI [14]: > 100 µM
